Patent US20210269451A1, “PYRIDINYL HETEROCYCLYL COMPOUNDS FOR THE TREATMENT OF AUTOIMMUNE DISEASE” (Hoffmann-La Roche Inc., priority 2018, published 2021)

Target: T1, hERG channel (Homo sapiens, UniProt Q12809)
T1 construct: expressed in transfected cells; host or cells: CHO (Chinese hamster ovary), CHOhERG
Experiment: hERG channel inhibition assay (patch-clamp, CHOhERG cells);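 for hERG IC20/TLR7 IC50: ratio above 30 indicates an adequate safety window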;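 for hERG IC20/TLR8 IC50: ratio above 30 indicates an adequate safety window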
Type: cell-based
Settings: for IC50 / IC20: CHOhERG cells, whole-cell patch-clamp; for IC20: human, CHO cells stably expressing hERG (CHOhERG); for hERG IC20/TLR7 IC50 / hERG IC20/TLR8 IC50 / hERG IC20/TLR9 IC50: safety ratio
Description: hERG channel inhibition assay:
The hERG K^+ channels were cloned in humans and stably expressed in a CHO (Chinese hamster ovary) cell line. CHOhERG cells were used for patch-clamp (voltage-clamp, whole-cell) experiments. Cells were stimulated by a voltage pattern to activate hERG channels and conduct IKhERG currents (rapid delayed outward rectifier potassium current of the hERG channel). After the cells were stabilized for a few minutes, the amplitude and kinetics of IKhERG were recorded at a stimulation frequency of 0.1 Hz (6 bpm). Thereafter, the test compound was added to the preparation at increasing concentrations. For each concentration, an attempt was made to reach a steady-state effect, usually, this was achieved within 3-10 min at which time the next highest concentration was applied. The amplitude and kinetics of IKhERG are recorded in each concentration of the drug which were compared to the control values (taken as 100%). (references: Redfern W S, Carlsson L, Davis A S, Lynch W G, MacKenzie I, Palethorpe S, Siegl P K, Strang I, Sullivan A T, Wallis R, Camm A J, Hammond T G. 2003; Relationships between preclinical cardiac electrophysiology, clinical QT interval prolongation and torsade de pointes for a broad range of drugs: evidence for a provisional safety margin in drug development. Cardiovasc. Res. 58:32-45, Sanguinetti M C, Tristani-Firouzi M. 2006; hERG potassium channels and cardiac arrhythmia. Nature 440:463-469, Webster R, Leishman D, Walker D. 2002; Towards a drug concentration effect relationship for QT prolongation and torsades de pointes. Curr. Opin. Drug Discov. Devel. 5:116-26).

T1 sequence (Q12809 whole entry): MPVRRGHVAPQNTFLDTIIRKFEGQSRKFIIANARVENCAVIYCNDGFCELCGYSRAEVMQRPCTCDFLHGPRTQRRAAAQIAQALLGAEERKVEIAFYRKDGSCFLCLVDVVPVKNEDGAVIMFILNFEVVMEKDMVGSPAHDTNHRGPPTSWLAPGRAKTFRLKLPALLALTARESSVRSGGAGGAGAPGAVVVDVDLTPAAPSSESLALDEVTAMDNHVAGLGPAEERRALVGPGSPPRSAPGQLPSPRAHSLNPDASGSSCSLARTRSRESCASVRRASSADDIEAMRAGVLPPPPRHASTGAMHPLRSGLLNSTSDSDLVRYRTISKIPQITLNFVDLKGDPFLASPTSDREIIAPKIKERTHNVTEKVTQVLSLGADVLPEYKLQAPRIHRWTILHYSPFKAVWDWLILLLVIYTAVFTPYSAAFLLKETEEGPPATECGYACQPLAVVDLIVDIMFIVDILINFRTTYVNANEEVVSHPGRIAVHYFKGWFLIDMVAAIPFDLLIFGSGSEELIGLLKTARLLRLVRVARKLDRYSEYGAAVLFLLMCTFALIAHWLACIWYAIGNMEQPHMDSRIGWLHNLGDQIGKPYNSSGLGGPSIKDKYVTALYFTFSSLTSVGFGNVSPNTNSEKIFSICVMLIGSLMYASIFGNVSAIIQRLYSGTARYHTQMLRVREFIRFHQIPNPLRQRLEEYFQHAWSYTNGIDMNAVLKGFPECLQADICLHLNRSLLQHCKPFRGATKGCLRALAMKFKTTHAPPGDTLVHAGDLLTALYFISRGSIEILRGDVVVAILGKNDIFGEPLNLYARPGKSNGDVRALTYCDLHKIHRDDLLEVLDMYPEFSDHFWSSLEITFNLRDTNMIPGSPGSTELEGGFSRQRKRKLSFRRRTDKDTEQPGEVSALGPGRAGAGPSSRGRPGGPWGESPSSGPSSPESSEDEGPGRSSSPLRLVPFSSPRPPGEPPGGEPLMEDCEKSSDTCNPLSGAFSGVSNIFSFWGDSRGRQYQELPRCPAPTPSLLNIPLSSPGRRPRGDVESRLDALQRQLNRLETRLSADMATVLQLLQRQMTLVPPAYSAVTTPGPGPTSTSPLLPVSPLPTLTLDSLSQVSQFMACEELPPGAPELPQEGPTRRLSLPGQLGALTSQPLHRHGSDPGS

SMILES	IC50	IC20	hERG IC20/TLR7 IC50	hERG IC20/TLR8 IC50	hERG IC20/TLR9 IC50
C[C@@H]1CN(c2ccc(C#N)c3ncccc23)C[C@H](CN2CCN(c3cc(N)nc(CO)c3)CC2)O1 [Example 45, 5-[(2S,6R)-2-[[4-[2-amino-6-(hydroxymethyl)-4-pyridyl]piperazin-1-yl]methyl]-6-methyl-morpholin-4-yl]quinoline-8-carbonitrile]	> 20 µM	> 10 µM	>256.4	>714.3	>109.9
Cc1cc(N2CC(NC[C@H]3CN(c4ccc(C#N)c5ncccc45)C[C@@H](C)O3)C2)cc(CO)n1 [Example 30]	> 10 µM	4.51 µM	69.4	322.0	51.2
Cc1cc(NC2CCN(C[C@H]3CN(c4ccc(C#N)c5ncccc45)C[C@@H](C)O3)C2)cc(CO)n1 (some centres unmarked) [Example 6]	> 20 µM	5.83 µM	132.4	109.9	142.1
Cc1cc(N2CC3(CN(C[C@H]4CN(c5ccc(C#N)c6ncccc56)C[C@@H](C)O4)C3)C2)cc(CO)n1 [Example 1, 5-[(2S,6R)-2-[[2-[2-(hydroxymethyl)-6-methyl-4-pyridyl]-2,6-diazaspiro[3.3]heptan-6-yl]methyl]-6-methyl-morpholin-4-yl]quinoline-8-carbonitrile]	> 20 µM	> 10 µM	>357.1	>123.5	>294.1
Cc1cc(NC2CN(C[C@H]3CN(c4ccc(C#N)c5ncccc45)C[C@@H](C)O3)C2)cc(C)n1 [Example 7]	> 20 µM	> 10 µM	>384.6	>322.6	>256.4
Cc1cc(NC2CCN(C[C@H]3CN(c4ccc(C#N)c5ncccc45)C[C@@H](C)O3)CC2)cc(CO)n1 [Example 5]	> 20 µM	7.18 µM	121.8	217.7	224.5
CC(O)c1cc(N2CC3(CN(C[C@H]4CN(c5ccc(C#N)c6ncccc56)C[C@@H](C)O4)C3)C2)ccn1 (stereo partly drawn) [Example 46, 5-[(2S,6R)-2-[[2-[2-(1-hydroxyethyl)-4-pyridyl]-2,6-diazaspiro[3.3]heptan-6-yl]methyl]-6-methyl-morpholin-4-yl]quinoline-8-carbonitrile]	> 10 µM	4.69 µM	146.6	52.1	146.6
